# Results reported in ChEMBL document CHEMBL1201862, “PubChem BioAssay data set” (2004).
# Calls of active or inactive are those of the source.
# Assays:
# [1] = inhibitors of non-replicating M. tuberculosis, dose response, luciferase, dry powder (AID 651619); format: functional; details: Mycobacterium tuberculosis
# [2] = inhibitors of non-replicating M. tuberculosis, dose response, luciferase, dry powder (AID 651620); format: functional; details: Mycobacterium tuberculosis
# [3] = Late stage assay provider results from the probe development effort to identify inhibitors of the Plasmodium falciparum M18 Aspartyl Aminopeptidase (M18AAP): radiolabel-based cell-based dose response assay to identify compounds that inhibit P. falciparum growth in RBCs, Set 2..; format: functional
# [4] = Trypanosoma cruzi growth suppression in host cells – NIH3T3 host cells, beta-gal luminescence, confirmation (AID 2044); format: functional, cell-based;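 note: intracellular parasites grown in NIH/3T3 mouse fibroblasts as host cells; luminescent beta-galactosidase reporter signal from transgenic T. cruzi replicating inside host cells; inhibitors lower the luminescence signal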
# Streptococcus = test: GAS UMAA2166 growth inhibition – luminescence, BacTiterGlo, counter-screen for streptokinase expression inhibitor project, dose response (AID 1915); format: functional, organism-based;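 note: potency for reduction of bacterial viability or growth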
# [5] = Luminescence Cell-Based Dose Retest to Confirm Inhibitors of Cancer Stem Cells. [Related pubchem assays (depositor defined):AID2717, AID2721]; format: functional; details: Homo sapiens
# [6] = target: Disintegrin and metalloproteinase domain-containing protein 17 (Homo sapiens, UniProt P78536); test: inhibition of ADAM17 substrate cleavage – biochemical, quenched FRET substrate, counter-screen for ADAM10 exosite inhibitor project, dose response (AID 743253)
# [7] = system: Streptococcus sp. 'group A'; test: Streptococcus pyogenes SK(-)GAS viability under kanamycin – luminescence, BacTiterGlo, confirmation, counter-screen for streptokinase expression inhibitor project, dose response (AID 1900); format: functional, organism-based
# [8] = NIH3T3 cell viability loss – ATP luminescence, mouse fibroblasts, counter-screen, dose response (AID 2010); format: functional, cell-based;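 note: cells exposed to compound for about 90 hours before reading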
# Streptokinase A = target: T1, Streptokinase A (Streptococcus pyogenes serotype M1, UniProt P10520); test: viability-normalized secreted streptokinase activity reduction – plasminogen activation absorbance, OD405, dose response (AID 1914); format: functional, Streptococcus pyogenes M1 GAS;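 note: secreted streptokinase activity via plasminogen activation per viability signal from cell pellet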
# T1 sequence (P10520 whole entry): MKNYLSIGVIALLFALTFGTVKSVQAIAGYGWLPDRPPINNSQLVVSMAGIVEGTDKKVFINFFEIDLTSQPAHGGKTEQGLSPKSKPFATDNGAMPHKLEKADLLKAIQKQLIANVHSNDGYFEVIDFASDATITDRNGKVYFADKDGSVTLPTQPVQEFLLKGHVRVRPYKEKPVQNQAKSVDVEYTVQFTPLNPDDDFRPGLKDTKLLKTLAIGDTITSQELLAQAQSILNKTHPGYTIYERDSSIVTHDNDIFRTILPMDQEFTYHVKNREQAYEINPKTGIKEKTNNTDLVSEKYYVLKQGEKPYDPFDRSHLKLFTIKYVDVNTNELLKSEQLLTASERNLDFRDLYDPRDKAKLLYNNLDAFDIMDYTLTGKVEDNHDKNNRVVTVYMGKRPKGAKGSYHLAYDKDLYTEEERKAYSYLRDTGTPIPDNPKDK
# [9] = toxicity toward HepG2 liver cells – cell-based, plate reader, cherry-pick, antagonist series, cytotoxicity control, dose response (AID 743416); format: functional
# [10] = A549 cell cytotoxicity, dose response, cytotoxicity control, plate reader, cherry-pick, antagonist series (AID 743412); format: functional, cell-based
# [11] = viability loss in HEK293 cells – cell-based, plate reader, cherry-picked samples, cytotoxicity control, dose response (AID 743446); format: functional
# [12] = reduction of Shn3 3'UTR-driven luciferase in osteoblasts – cell-based, Clone20 osteoblasts, firefly luciferase, cherry-picked, dose response (AID 624132); format: functional;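 note: firefly luciferase luminescence from reporter carrying the Shn3 3'UTR in osteoblasts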
# [13] = target: T2, Heat shock factor protein 1 (Mus musculus, UniProt P38532); test: decrease of HSF1-responsive luciferase luminescence – cell-based, NIH3T3, dose retest, confirmation (AID 2382); format: functional;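 note: NIH3T3 fibroblasts with HSF1-driven luciferase reporter stressed by proteasome inhibitor MG132; luminescence from HSF1-driven luciferase expression after 8 hours of MG132 stress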
# T2 sequence (P38532 whole entry): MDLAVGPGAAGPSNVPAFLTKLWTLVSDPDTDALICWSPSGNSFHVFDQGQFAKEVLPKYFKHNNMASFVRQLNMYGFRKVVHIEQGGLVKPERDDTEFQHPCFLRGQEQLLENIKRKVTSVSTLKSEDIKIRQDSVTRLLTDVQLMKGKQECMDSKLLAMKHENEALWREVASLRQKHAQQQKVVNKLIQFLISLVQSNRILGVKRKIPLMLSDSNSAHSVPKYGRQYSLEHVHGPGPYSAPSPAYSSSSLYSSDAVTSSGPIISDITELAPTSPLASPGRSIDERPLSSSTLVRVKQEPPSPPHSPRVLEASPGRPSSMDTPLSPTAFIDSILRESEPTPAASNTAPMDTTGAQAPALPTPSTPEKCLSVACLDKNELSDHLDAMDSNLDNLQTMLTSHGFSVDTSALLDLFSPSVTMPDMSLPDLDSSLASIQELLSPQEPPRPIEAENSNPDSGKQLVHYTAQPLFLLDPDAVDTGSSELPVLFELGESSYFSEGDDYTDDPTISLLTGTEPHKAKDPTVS
# [14] = Shn3 3'UTR reporter signal decrease – cell-based, Clone20 osteoblasts, firefly luciferase, cherry-pick, set 2, Schnurri-3 inhibitor project, dose response (AID 720490); format: functional;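 note: actives lower the luminescence signal as inhibitors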
# [15] = blockers of bursicon-stimulated LGR2 cAMP reporter – cell-based, HEK293, CRE-luciferase reporter, cherry pick, set 2, dose response (AID 743343); format: functional;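 note: transfected cells were stimulated with diluted bursicon conditioned medium after compound addition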
# [16] = target: T3, Microphthalmia-associated transcription factor (Homo sapiens, UniProt O75030); test: reducers of TRPM1 reporter luminescence, concentration series – cell-based, SK-MEL-5, cherry-picked, set 3, MITF inhibitor project, dose response (AID 493073); format: functional;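 note: SK-MEL-5 melanoma cells with luciferase driven by the MITF target TRPM1 promoter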
# T3 sequence (O75030 whole entry): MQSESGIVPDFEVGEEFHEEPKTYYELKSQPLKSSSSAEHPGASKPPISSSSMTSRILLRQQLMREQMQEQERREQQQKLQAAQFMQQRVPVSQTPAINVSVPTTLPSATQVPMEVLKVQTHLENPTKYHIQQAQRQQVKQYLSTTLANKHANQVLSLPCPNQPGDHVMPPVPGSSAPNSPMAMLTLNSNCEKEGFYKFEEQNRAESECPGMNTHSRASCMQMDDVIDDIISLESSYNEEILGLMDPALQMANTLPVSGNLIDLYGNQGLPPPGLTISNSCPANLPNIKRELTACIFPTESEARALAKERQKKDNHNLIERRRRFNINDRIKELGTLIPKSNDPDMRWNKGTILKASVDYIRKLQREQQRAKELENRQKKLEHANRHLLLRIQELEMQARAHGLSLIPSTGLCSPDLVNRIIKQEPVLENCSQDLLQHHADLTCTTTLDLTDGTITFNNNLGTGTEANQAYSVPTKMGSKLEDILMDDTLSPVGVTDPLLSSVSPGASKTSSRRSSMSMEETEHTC
# [17] = blockade of melanocortin 4 receptor signaling – cell-based, plate reader, cherry pick, counter-screen for LGR2 antagonist project, dose response (AID 743444); format: functional;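 note: transfected HEK 293 cells stimulated with alpha-MSH peptide; potency of inhibitors of the alpha-MSH evoked signal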
# HEK293 = test: viability loss in HEK293T cells – cell-based, ATP luminescence, cherry-pick samples, cytotoxicity control, dose response (AID 687005); format: functional; details: Homo sapiens;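 note: cells exposed to compound for 48 hours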
# [18] = target: Adenosylmethionine-8-amino-7-oxononanoate aminotransferase (Mycobacterium tuberculosis, UniProt P9WQ81); test: Mycobacterium tuberculosis BioA enzyme inhibitor Measured in Biochemical System Using Plate Reader - 2163-02_Inhibitor_Dose_CherryPick_Activity.; format: functional, Mycobacterium tuberculosis UT205
# [19] = HEK293 cell viability loss – plate reader, cherry-pick, cytotoxicity control, dose response (AID 651899); format: functional, cell-based
# [20] = HEK293 Cytotoxicity Assay Measured in Cell-Based System Using Plate Reader - 7071-01_Inhibitor_Dose_CherryPick_Activity_Set2.; format: functional
# Sequence of Disintegrin and metalloproteinase domain-containing protein 17 (P78536 whole entry, the tested form may be a part): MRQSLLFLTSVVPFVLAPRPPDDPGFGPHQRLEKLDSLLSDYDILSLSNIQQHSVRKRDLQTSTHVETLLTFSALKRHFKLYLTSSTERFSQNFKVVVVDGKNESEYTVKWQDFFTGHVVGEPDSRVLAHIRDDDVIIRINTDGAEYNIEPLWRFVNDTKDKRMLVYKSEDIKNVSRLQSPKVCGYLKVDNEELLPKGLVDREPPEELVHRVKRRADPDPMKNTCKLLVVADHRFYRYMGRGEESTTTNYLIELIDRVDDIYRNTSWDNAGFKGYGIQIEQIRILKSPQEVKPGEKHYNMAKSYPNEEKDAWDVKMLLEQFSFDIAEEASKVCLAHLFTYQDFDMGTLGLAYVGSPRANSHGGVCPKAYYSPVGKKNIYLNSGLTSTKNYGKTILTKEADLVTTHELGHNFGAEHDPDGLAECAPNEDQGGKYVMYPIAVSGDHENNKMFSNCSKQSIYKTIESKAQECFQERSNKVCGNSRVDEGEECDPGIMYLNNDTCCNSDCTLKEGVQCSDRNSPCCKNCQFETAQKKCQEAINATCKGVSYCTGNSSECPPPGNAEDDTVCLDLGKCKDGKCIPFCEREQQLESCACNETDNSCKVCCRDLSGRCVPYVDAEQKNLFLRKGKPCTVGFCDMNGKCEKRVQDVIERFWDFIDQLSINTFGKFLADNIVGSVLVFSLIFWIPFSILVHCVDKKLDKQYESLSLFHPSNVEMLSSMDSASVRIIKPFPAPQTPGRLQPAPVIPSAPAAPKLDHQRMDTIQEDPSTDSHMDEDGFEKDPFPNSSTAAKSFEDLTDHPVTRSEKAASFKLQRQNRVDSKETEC
# Sequence of Adenosylmethionine-8-amino-7-oxononanoate aminotransferase (P9WQ81 whole entry): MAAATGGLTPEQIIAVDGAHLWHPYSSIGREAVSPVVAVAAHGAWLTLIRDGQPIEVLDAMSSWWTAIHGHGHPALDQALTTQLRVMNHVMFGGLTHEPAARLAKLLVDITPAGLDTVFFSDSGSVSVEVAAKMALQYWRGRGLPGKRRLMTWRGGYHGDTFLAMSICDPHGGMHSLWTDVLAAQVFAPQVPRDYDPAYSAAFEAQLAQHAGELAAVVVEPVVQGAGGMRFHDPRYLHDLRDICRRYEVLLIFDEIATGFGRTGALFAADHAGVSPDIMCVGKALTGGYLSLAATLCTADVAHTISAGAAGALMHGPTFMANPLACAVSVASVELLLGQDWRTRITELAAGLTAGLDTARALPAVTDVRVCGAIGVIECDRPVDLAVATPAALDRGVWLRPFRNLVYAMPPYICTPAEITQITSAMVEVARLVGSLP
smiles,measurement,setting,value
[N-]=[N+]=NCCOCCNC(=O)c1ccc(C[S+]([O-])c2nnc(-c3ccc(Cl)cc3)o2)nc1 (stereo not drawn),IC90,[1],16 µM (active)
same,IC90,[2],16 µM (active)
COc1ccc(CCNc2cncc3ccccc23)cc1OC,IC50,[3],4.5 µM (active)
O=C(Nc1cccc(S(=O)(=O)Nc2ccc(Cl)cc2)c1)c1cc2c(s1)CCCC2,EC50,[4],1.09 µM (active)
same,EC50,Streptococcus,1.98 µM (active)
same,AC50,[5],2.28 µM (active)
same,IC50,[6],> 69.5 µM (inactive)
same,EC50,[7],2.51 µM (active)
same,EC50,[8],10.9 µM (active)
same,EC50,Streptokinase A,5.01 µM (active)
O=C(O)c1cccc(COc2ccccc2Cl)c1,AC50,[9],> 52 µM (inactive)
same,AC50,[10],> 52 µM (inactive)
same,AC50,[11],> 52 µM (inactive)
same,AC50,[12],1.48 µM (active)
same,EC50,[13],1.06 µM (active)
same,AC50,[14],4.74 µM (active)
same,AC50,[15],0.517 µM (active)
same,AC50,[16],0.756 µM (active)
same,AC50,[17],0.488 µM (active)
CC(=O)c1ccc(N2CCN(C(=O)Cc3cccs3)CC2)cc1,AC50,HEK293,> 52 µM (inactive)
same,AC50,[18],11.6 µM (active)
same,AC50,[19],3.82 µM (active)
same,AC50,[20],> 52 µM (inactive)
